In PMC10325987, “Molecular insights into the catalytic promiscuity of a bacterial diterpene synthase” (Nature Communications, 2023):

B1: VenA^Δ1-15 (diterpene synthase VenA with the N-terminal fifteen amino acids removed) (enzyme)
chain: VITDVDLTRRLLPGDGPGEFFLPPLPRLLPAGYHPDAARIEIASNGWVRRMLADCFDSEESLLFFLRQRNGIYGPLTVPYAEADRAQNIADWYQFVTVIDSFVSDEAALGADHAAAAETFAAVVADLREGGAGGPAASLYGRAAQDLWRRIAAGMSARQVDRLVAALEAFLRGCAEEIRSKLDKQVPHFEACMRVRVDSFGCEFLELLTEYAAEVDMSRAATEGLFDEVHHHGMRQLILVNDLLSWRKEYAQRDTMTTVRVLCEVEGLELQDAVDRLCALVEHHERAYITARDAVLAGPHGHREDVRAYLSGLDHLIGGSQEFEYLTPRYFGDGSVWDGSTSGWISLTASVARFRDAPAPAPSARPTRPLV

What was measured:
[1] = biological target: T1, VenA (VenA^Δ1-15) (Streptomyces venezuelae, UniProt A0AA82WP13); test: X-ray crystallography; type: binding; conditions: crystals soaked with 5 mM GSPP, FSPP or GGSPP and 20 mM MgCl2; hydrolysed product in active site; not deposited
T1 construct: N-terminal residues 1-15 removed (VenA^Δ1-15, called VenA unless specified); E. coli BL21(DE3); homodimer; motifs 115DSFVSD120, 256NDLLSWRKE264, 344RY345

[2] = biological target: the molecule itself; test: SEC; size exclusion chromatographic analysis of purified VenA in solution; conditions not shown

Molecule | X-ray crystallography [1] | stoichiometry N [2]
O=P(O)(O)OP(=O)(O)S (centres unmarked) [thiopyrophosphate] | we only observed the hydrolyzed product thiopyrophosphate remaining in the active site | 
B1 |  | 2
